Article PMC9522516, “A Simple and Portable Personal Glucose Meter Method Combined with Molecular Docking for Screening of Lipase Inhibitors” (Evidence-based Complementary and Alternative Medicine : eCAM, 2022)

target: T1, Lipase (Diutina rugosa, UniProt P20261); test: lipase activity assay, personal glucose meter readout, % inhibition at […]; format: biochemical
T1 construct: gene LIP1
T1 sequence (P20261 16-549): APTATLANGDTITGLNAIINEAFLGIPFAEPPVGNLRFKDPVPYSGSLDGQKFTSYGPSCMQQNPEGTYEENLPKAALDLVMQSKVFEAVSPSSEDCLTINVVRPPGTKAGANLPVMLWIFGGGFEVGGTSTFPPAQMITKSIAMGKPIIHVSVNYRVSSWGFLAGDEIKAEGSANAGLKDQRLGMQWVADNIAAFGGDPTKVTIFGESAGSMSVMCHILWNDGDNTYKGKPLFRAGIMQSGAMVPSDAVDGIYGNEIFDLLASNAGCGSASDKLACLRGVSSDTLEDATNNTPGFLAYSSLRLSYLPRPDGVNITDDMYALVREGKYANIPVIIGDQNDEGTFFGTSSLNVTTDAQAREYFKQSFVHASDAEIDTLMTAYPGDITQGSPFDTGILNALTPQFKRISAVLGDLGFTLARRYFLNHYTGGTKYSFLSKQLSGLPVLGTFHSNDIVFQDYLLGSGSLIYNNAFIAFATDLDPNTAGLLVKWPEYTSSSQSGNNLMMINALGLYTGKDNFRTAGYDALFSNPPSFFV

Structure (SMILES) | inhibition at 2000 µM
O=C(O[C@@H]1Cc2c(O)cc(O)cc2O[C@@H]1c1ccc(O)c(O)c1)c1cc(O)c(O)c(O)c1 [(−)-Epicatechin gallate] | 46.5 ± 2.2%
Oc1cc(O)c2c(c1)O[C@H](c1cc(O)c(O)c(O)c1)[C@H](O)C2 [(−)-Epigallocatechin] | 47.2 ± 1.6%
Oc1cc(O)c2c(c1)O[C@H](c1ccc(O)c(O)c1)[C@H](O)C2 [Epicatechin] | 42.8 ± 1.8%
O=C(/C=C/c1ccc(O)c(O)c1)O[C@H](Cc1ccc(O)c(O)c1)C(=O)O [Rosmarinic acid] | 39.3 ± 3%
